In one test the target is KRas^Q61H (Homo sapiens, UniProt P01116, Q61H). Put plainly: biochemical.
The subject of test [1] is PSN-1 (G12R) cells, phospho-ERK. In words: Inhibition of KRas-mediated phosphorylation of ERK (phospho-ERK/GAPDH antibody detection, LI-COR). Type of test: cell-based. Particulars: Homo sapiens, PSN1, 3 hours. In short, it runs like this: (§1)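 Cells seeded 20,000/well, attached 12-14 h, then compound (0.5% DMSO) for 3 h. Formaldehyde-fixed, methanol-permeabilized cells stained for phospho-ERK (Thr202/Tyr204) and GAPDH; infrared imaging. Ratio expressed as % of DMSO control; IC50 from 4-parameter fit.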

In test [2] the test system is HCT116 (G13D) cells, phospho-ERK. The test is described as above. Type of test: cell-based. The settings on record: Homo sapiens, HCT-116, 3 hours. In short, it runs like this:
as §1

For test [3], the system named is NCI-H727 (G12V) cells, phospho-ERK. Described as above. Format: cell-based. Particulars: Homo sapiens, 3 hours. Put shortly: as §1
For test [4], the system named is A549 (G12S) cells, phospho-ERK. The description is as above. Type of test: cell-based. Particulars: Homo sapiens, 3 hours. Put shortly: as §1
The test system of test [5] is NCI-H460 (Q61H) cells, phospho-ERK. The test is described as above. Type of test: cell-based. The settings on record: Homo sapiens, 3 hours. Put shortly: as §1
Test [6] concerns NCI-H358 (G12C) cells, phospho-ERK. The test is described as above. Format: cell-based. Particulars: Homo sapiens, 3 hours. Put shortly:
as §1

Test [7] concerns AsPC-1 (G12D) cells, phospho-ERK. Described as above. Format: cell-based. Particulars: Homo sapiens, ASPC1, 3 hours. In short, it runs like this:
as §1

A further test has as its target T1, KRas^WT (Homo sapiens, UniProt P01116).
T1 construct: […]; biotin (biotinylated); purchased Accelegan Inc
In words: KRas binding assay (TR-FRET displacement of Cy5 labelled tracer).

The target of another test is T2, KRas^G12V (Homo sapiens, UniProt P01116, G12V).
T2 construct: […]; biotin (biotinylated); purchased Accelegan Inc
T2 sequence (P01116 1-169 isoform P01116-2 G12V): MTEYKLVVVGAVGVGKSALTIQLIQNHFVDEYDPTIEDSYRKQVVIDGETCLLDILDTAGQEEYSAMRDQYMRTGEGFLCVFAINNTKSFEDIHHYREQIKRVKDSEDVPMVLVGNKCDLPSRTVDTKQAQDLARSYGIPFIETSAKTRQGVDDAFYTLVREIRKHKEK
The description is as above.

A further test addresses KRas^G12C (Homo sapiens, UniProt P01116, G12C). In words: biochemical.
The next test has as its target T3, KRas^G12A (Homo sapiens, UniProt P01116, G12A).
T3 construct: […]; biotin (biotinylated); purchased Accelegan Inc
Put plainly: KRas binding assay (TR-FRET displacement of Cy5 labelled tracer). In general terms: TR-FRET usually uses a lanthanide donor and a delayed reading to cut background.

For another test, the target named is T4, KRas^G12R (Homo sapiens, UniProt P01116, G12R).
T4 construct: […]; biotin (biotinylated); purchased Accelegan Inc
T4 sequence (P01116 1-169 isoform P01116-2 G12R): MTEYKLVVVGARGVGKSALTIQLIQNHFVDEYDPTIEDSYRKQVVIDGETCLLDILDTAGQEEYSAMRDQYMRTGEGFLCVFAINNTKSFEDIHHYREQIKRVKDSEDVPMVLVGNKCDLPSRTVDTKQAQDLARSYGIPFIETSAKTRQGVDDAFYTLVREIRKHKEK
Described as above.

Another test deals with T5, KRas^G12D (Homo sapiens, UniProt P01116, G12D).
T5 construct: […]; biotin (biotinylated); purchased Accelegan Inc
T5 sequence (P01116 1-169 isoform P01116-2 G12D): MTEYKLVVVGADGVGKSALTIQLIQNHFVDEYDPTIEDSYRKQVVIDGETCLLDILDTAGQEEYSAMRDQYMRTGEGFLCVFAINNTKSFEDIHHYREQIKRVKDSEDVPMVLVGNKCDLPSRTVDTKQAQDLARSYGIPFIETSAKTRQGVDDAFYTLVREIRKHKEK
Described as above.

The next test concerns the target KRas^G13D (Homo sapiens, UniProt P01116, G13D). Put plainly: biochemical.
Another test has as its target T6, KRas^G12S (Homo sapiens, UniProt P01116, G12S).
T6 construct: […]; biotin (biotinylated); purchased Accelegan Inc
In words: KRas binding assay (TR-FRET displacement of Cy5 labelled tracer).

A further test concerns HCT116 cells, pERK. Put plainly: Inhibition of KRas phosphorylation of ERK (Cisbio HTRF Advanced pERK assay). Type of test: cell-based. Particulars: Homo sapiens, HCT-116, 3 hrs, read-out: Inhibition (HTRF IC50 nM) of KRas-mediated Phosphorylation of ERK, HCT116. In short, it runs like this:
(§2)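 Overnight-plated cells (RPMI, 10% FBS); compound 3 h, 37 °C, 10 uM top, 3-fold x10, 0.8% DMSO; min ctrl trametinib 0.2 uM; lysis 40 min 4 °C; pERK by HTRF, 2 h RT.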

A further test concerns H727 cells, pERK. The description is as above. The settings on record: Homo sapiens, NCI-H727, 3 h, read-out: Inhibition (HTRF IC50 nM) of KRas-mediated Phosphorylation of ERK, H727. Type of test: cell-based. Put shortly: as §2
The subject of the next test is H460 cells, pERK. The description is as above. Format: cell-based. The settings on record: Homo sapiens, NCI-H460, 3 hrs, read-out: Inhibition (HTRF IC50 nM) of KRas-mediated Phosphorylation of ERK, H460. Put shortly: as §2
For another test, the system named is A549 cells, pERK. The description is as above. Type of test: cell-based. Particulars: Homo sapiens, 3 hrs, read-out: Inhibition (HTRF IC50 nM) of KRas-mediated Phosphorylation of ERK, A549. In short, it runs like this: as §2
The test system of another test is ASPC1 cells, pERK. The description is as above. Type of test: cell-based. Particulars: Homo sapiens, ASPC1, 3 h, AsPC-1 cells, read-out: Inhibition (HTRF IC50 nM) of KRas-mediated Phosphorylation of ERK, AsPC-1. Put shortly:
as §2

The next test relates to H358 cells, pERK. The test is described as above. Type of test: cell-based. Particulars: Homo sapiens, NCI-H358, 3 hrs, read-out: Inhibition (HTRF IC50 nM) of KRas-mediated Phosphorylation of ERK, H358. Put shortly:
as §2

The subject of another test is PSN1 cells, pERK. The description is as above. Format: cell-based. The settings on record: Homo sapiens, PSN1, 3 h, read-out: Inhibition (HTRF IC50 nM) of KRas-mediated Phosphorylation of ERK, PSN1. Put shortly:
as §2

Another test concerns MKN1 cells, pERK. Described as above. Type of test: cell-based. The settings on record: Homo sapiens, MKN-1, 3 h, read-out: Inhibition (HTRF IC50 nM) of KRas-mediated Phosphorylation of ERK, MKN1. In short, it runs like this:
as §2

pIC50: −log10 of the molar value.

T1 sequence (P01116 1-169 isoform P01116-2): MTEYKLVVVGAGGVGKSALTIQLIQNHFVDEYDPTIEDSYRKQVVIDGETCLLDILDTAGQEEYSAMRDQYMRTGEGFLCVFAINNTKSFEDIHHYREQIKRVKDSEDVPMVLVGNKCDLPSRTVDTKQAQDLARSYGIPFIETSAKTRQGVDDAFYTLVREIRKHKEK
Sequence of KRas^Q61H (P01116 1-169 isoform P01116-2 Q61H): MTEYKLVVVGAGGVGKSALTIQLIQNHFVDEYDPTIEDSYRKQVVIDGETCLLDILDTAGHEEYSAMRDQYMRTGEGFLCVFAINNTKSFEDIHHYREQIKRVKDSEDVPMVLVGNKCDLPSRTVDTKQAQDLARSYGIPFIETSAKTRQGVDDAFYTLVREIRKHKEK
Sequence of KRas^G12C (P01116 1-169 isoform P01116-2 G12C): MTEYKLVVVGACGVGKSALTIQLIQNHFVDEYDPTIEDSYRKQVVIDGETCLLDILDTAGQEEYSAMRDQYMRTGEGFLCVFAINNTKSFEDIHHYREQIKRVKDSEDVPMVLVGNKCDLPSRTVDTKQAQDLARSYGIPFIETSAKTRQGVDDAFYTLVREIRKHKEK
T6 sequence (P01116 1-169 isoform P01116-2 G12S): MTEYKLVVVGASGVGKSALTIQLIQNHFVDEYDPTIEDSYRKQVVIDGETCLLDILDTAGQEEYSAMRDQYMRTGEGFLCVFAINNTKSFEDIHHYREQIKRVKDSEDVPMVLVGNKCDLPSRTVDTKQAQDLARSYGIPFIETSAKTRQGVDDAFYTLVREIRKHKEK
Sequence of KRas^G13D (P01116 1-169 isoform P01116-2 G13D): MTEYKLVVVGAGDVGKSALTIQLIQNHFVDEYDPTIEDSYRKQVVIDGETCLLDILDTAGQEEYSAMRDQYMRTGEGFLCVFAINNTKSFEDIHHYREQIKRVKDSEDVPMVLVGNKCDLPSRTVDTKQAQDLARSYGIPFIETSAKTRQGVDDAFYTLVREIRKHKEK
T3 sequence (P01116 1-169 isoform P01116-2 G12A): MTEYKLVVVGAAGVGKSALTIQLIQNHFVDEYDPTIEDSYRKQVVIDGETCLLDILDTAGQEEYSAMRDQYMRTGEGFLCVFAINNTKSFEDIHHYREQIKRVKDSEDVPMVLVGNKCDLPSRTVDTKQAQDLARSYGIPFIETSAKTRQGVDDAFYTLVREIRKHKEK
Description for KRas^G12A: (§3) The ability of a compound to bind to KRas was measured using a TR-FRET displacement assay. […] After a 60-minute incubation at room temperature, the reaction was measured using a BMG LABTECH CLARIO star Plus via TR-FRET. […] The POC values were fit to a 4-parameter IC50 equation and the IC50 value reported.
Description for KRas^G12C: as §3
Description for KRas^G12D: as §3
Description for KRas^G12R: as §3
Description for KRas^G12S: as §3
Description for KRas^G12V: as §3
Description for KRas^G13D: as §3
Description for KRas^Q61H: as §3
Description for KRas^WT: as §3

For orientation: pIC50 means the negative decadic logarithm of the IC50, by convention in mol/L. The IC50 is the concentration at which inhibition is half-maximal. With `CCc1c(F)ccc2cc(O)cc(N3CCc4c(nc(OCC56CCCN5CCC6)nc4N4CCC[C@@](C)(O)C4)C3)c12` [Example 1, (R)-1-(7-(8-ethyl-7-fluoro-3-hydroxynaphthalen-1-yl)-2-((hexahydro-1H-pyrrolizin-7a-yl)methoxy)-5,6,7,8-tetrahydropyrido[3,4-d]pyrimidin-4-yl)-3-methylpiperidin-3-ol], the pIC50 on KRas^Q61H, on KRas^WT, at KRas^G12V, on KRas^G12C, at KRas^G12A and at KRas^G12R was ≥ 8.70 each time. The pIC50 on KRas^G12D, on KRas^G13D and on KRas^G12S was ≥ 8.70 in each case. In addition, the IC50 in test [1] came to 1400 nM; in [2], 601 nM; in test [3] it was 1260 nM; in test [4], 1020 nM; in test [5] it was 357 nM; in test [6] it was 236 nM. This compound registered an IC50 in test [7] of 398 nM.

Turning to `CCc1c(F)ccc2cc(O)cc(N3CCc4c(nc(OC[C@@]56CCCN5C[C@H](F)C6)nc4N4CCC[C@@](C)(O)C4)C3)c12` [Example 2, (R)-1-(7-(8-ethyl-7-fluoro-3-hydroxynaphthalen-1-yl)-2-(((2R,7aS)-2-fluorohexahydro-1H-pyrrolizin-7a-yl)methoxy)-5,6,7,8-tetrahydropyrido[3,4-d]pyrimidin-4-yl)-3-methylpiperidin-3-ol], the pIC50 on KRas^Q61H, on KRas^WT, at KRas^G12V, on KRas^G12C, on KRas^G12A and on KRas^G12R was ≥ 8.70 in each case. Moreover, the pIC50 at KRas^G12D was ≥ 8.70; against KRas^G13D, 7.28; at KRas^G12S it was ≥ 8.70. The concentration for half-maximal inhibition (IC50) was 3530 nM in [1]; 863 nM in test [2]; 798 nM in [3]; 241 nM in test [4]; 184 nM in test [5]; 252 nM in [6]. Moreover, the IC50 turned out to be 280 nM in [7]; 426 nM with HCT116 cells, pERK; 315 nM in the test with H727 cells, pERK; 146 nM with H460 cells, pERK; 144 nM with A549 cells, pERK; 29 nM with ASPC1 cells, pERK.

In the case of `CCc1c(F)ccc2cc(O)cc(N3CCc4c(nc(OC[C@@]56CCCN5C[C@H](F)C6)nc4NCc4cccnc4N)C3)c12` [Example 17, 4-(4-(((2-aminopyridin-3-yl)methyl)amino)-2-(((2R,7aS)-2-fluorohexahydro-1H-pyrrolizin-7a-yl)methoxy)-5,6-dihydropyrido[3,4-d]pyrimidin-7(8H)-yl)-5-ethyl-6-fluoronaphthalen-2-ol], the IC50 was > 10000 nM in test [1]; 10000 nM in [2]; 1130 nM in test [3]; 189 nM in [4]; 232 nM in [6]. The results for the pIC50 at KRas^G12V, at KRas^G12R and at KRas^G12D were ≥ 8.70, ≥ 8.70 and 7.59, respectively.

For the compound `CCc1c(F)ccc2cc(O)cc(N3CCc4c(nc(OC[C@@]56CCCN5C[C@H](F)C6)nc4N4CCOCC(C)(O)C4)C3)c12` (stereo partly drawn) [Example 20, 4-(7-(8-ethyl-7-fluoro-3-hydroxynaphthalen-1-yl)-2-(((2R,7aS)-2-fluorohexahydro-1H-pyrrolizin-7a-yl)methoxy)-5,6,7,8-tetrahydropyrido[3,4-d]pyrimidin-4-yl)-6-methyl-1,4-oxazepan-6-ol], the IC50 was > 10000 nM in [1]; 860 nM in [2]; 747 nM in test [3]; 446 nM in test [4]; 314 nM in [6]. The negative logarithm of the IC50 (pIC50) on KRas^G12V is ≥ 8.70; on KRas^G12R, 7.28; at KRas^G12D, ≥ 8.70.

Turning to `CCc1c(F)ccc2cc(O)cc(N3CCc4c(nc(OC[C@@]56CCCN5C[C@H](F)C6)nc4N4CCCn5nc(CO)cc5C4)C3)c12` [Example 34, 5-ethyl-6-fluoro-4-(2-(((2R,7aS)-2-fluorohexahydro-1H-pyrrolizin-7a-yl)methoxy)-4-(2-(hydroxymethyl)-7,8-dihydro-4H-pyrazolo[1,5-a][1,4]diazepin-5(6H)-yl)-5,6-dihydropyrido[3,4-d]pyrimidin-7(8H)-yl)naphthalen-2-ol], the IC50 was 1040 nM in [3]; 774 nM in test [5]; 258 nM in [7]; 38 nM in the test with H358 cells, pERK; ≥ 10000 nM in the test with PSN1 cells, pERK; 134 nM with MKN1 cells, pERK. Besides, the IC50 in the test on HCT116 cells, pERK was determined as 1270 nM; with H727 cells, pERK, 217 nM; in the test with H460 cells, pERK, 784 nM; in the test on A549 cells, pERK, 351 nM; in the test with ASPC1 cells, pERK it was 31 nM. The pIC50 on KRas^G12V, at KRas^G12R and at KRas^G12D was ≥ 8.70 in each case.

Consider `CCc1c(F)ccc2cc(O)cc(N3CCc4c(nc(OC[C@@]56CCCN5C[C@H](F)C6)nc4N4CCCC5(C4)NC(=O)NC5=O)C3)c12` (stereo partly drawn) [Example 59, 7-(7-(8-ethyl-7-fluoro-3-hydroxynaphthalen-1-yl)-2-(((2R,7aS)-2-fluorohexahydro-1H-pyrrolizin-7a-yl)methoxy)-5,6,7,8-tetrahydropyrido[3,4-d]pyrimidin-4-yl)-1,3,7-triazaspiro[4.5]decane-2,4-dione], for which the IC50 in test [3] turned out to be 181 nM; in test [5], 17 nM; in test [7], 44 nM; in the test on H358 cells, pERK, 4 nM; in the test with PSN1 cells, pERK, 25.3 nM; in the test on MKN1 cells, pERK, 5 nM. Besides, the IC50 worked out at 16 nM with HCT116 cells, pERK; 40 nM in the test on H727 cells, pERK; 9 nM in the test on H460 cells, pERK; 3 nM with A549 cells, pERK; 8 nM in the test on ASPC1 cells, pERK. Also, the pIC50 on KRas^G12V, on KRas^G12R and at KRas^G12D was ≥ 8.70 in each case.

With `CN(C)C(=O)c1cc2n(n1)CCCN(c1nc(OC[C@@]34CCCN3C[C@H](F)C4)nc3c1CCN(c1cc(O)cc4ccc(F)c(Br)c14)C3)C2` [Example 218, 5-(7-(8-bromo-7-fluoro-3-hydroxynaphthalen-1-yl)-2-(((2R,7aS)-2-fluorohexahydro-1H-pyrrolizin-7a-yl)methoxy)-5,6,7,8-tetrahydropyrido[3,4-d]pyrimidin-4-yl)-N,N-dimethyl-5,6,7,8-tetrahydro-4H-pyrazolo[1,5-a][1,4]diazepine-2-carboxamide], the pIC50 on KRas^G12V, on KRas^G12R and at KRas^G12D was ≥ 8.70 each time. The IC50 in the test with H358 cells, pERK turned out to be 61 nM; with PSN1 cells, pERK, 6070 nM; in the test with MKN1 cells, pERK, 85 nM; in the test on HCT116 cells, pERK, 1340 nM; in the test on H727 cells, pERK, 86 nM; with H460 cells, pERK, 845 nM. Also, the IC50 in the test on A549 cells, pERK was determined as 294 nM; in the test on ASPC1 cells, pERK, 46 nM.

These data come from patent US12421253B2 (Mirati Therapeutics, Inc., priority 2020, dated 2025).
